Results published in BindingDB's records for patent US10669227 (THE RESEARCH FOUNDATION OF STATE UNIVERSITY OF NEW YORK, 2020).

Biological target: 72 kDa type IV collagenase (Homo sapiens, UniProt P08253)
Test: Inhibition of MMPs
From the text: However, it should be noted that excessive inhibition of MMP activity may not be desirable therapeutically because a minimal, or basal, level of MMPs may be necessary for optimal defense of the host.

Sequence of 72 kDa type IV collagenase (P08253 whole entry): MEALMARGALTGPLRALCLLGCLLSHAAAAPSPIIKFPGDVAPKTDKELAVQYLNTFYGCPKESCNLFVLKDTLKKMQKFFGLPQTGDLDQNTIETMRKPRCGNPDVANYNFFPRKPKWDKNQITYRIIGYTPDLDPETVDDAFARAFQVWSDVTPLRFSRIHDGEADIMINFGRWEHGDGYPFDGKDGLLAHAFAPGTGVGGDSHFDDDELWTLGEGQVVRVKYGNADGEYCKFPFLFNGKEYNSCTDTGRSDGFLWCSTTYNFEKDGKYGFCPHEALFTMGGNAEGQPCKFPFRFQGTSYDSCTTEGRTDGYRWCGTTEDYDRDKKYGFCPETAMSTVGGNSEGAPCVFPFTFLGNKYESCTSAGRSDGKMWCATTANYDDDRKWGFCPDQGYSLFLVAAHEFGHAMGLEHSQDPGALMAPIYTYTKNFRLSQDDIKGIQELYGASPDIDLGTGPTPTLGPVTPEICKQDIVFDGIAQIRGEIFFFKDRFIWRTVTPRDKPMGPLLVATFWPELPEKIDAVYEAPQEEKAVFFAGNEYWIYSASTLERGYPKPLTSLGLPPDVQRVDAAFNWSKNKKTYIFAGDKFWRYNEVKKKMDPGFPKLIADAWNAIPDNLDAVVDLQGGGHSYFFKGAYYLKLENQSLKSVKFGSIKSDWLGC

COc1cc(/C=C/C(=O)C(C(=O)/C=C/c2ccc(O)c(CO)c2)C(=O)Nc2ccccc2)ccc1O (stereo unspecified) [US10669227, Compound 6] showed an IC50 of 85 µM.
